Source: US4442044A, “Process for preparing monoesters and diesters of N-alkyl substituted amino methyl phosphonic acid” (priority 1983, dated 1984)

Legend:
Type in all cases: in vivo
Cocklebur [1] = test: pre-emergent herbicidal activity, soil incorporation; conditions: Table III, 2 WAT, 11.2 kg/h
How it was run: (§1)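 Seeds/propagules placed on compacted top soil, then covered with soil admixed with composition containing known active-ingredient amount (soil incorporation); sub-irrigated on wet sand bench about two weeks under ordinary sunlight and watering. Emerged plants counted per species against untreated control; index from average percent control.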

Canada Thistle [2] = test: as above; conditions: Table III, 2 WAT, 11.2 kg/h
How it was run: as §1

Quackgrass [3] = test: as above; conditions: Table III, 2 WAT, 11.2 kg/h
How it was run: as §1

Lambsquarters [4] = test: as above; conditions: Table III, 2 WAT, 11.2 kg/h
How it was run: as §1

Velvetleaf [5] = test: as above; conditions: Table III, 2 WAT, 11.2 kg/h
How it was run: as §1

Smartweed [6] = test: as above; conditions: Table III, 2 WAT, 11.2 kg/h
How it was run: as §1

Barnyardgrass [7] = test: as above; conditions: Table III, 2 WAT, 11.2 kg/h
How it was run: as §1

Johnsongrass [8] = test: as above; conditions: Table III, 2 WAT, 11.2 kg/h
How it was run: as §1

Yellow Nutsedge [9] = test: as above; conditions: Table III, 2 WAT, 11.2 kg/h
How it was run: as §1

Downy Brome [10] = test: as above; conditions: Table III, 2 WAT, 11.2 kg/h
How it was run: as §1

Morningglory [11] = test: as above; conditions: Table III, 2 WAT, 11.2 kg/h
How it was run: as §1

Cocklebur [12] = test: post-emergent herbicidal activity, greenhouse; conditions: 4 WAT
How it was run: (§2)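 Seeds or propagules sown in compacted top soil, grown 2–3 weeks in greenhouse, then sprayed with compound solution/suspension containing ~0.4% emulsifier at tabulated rates. Injury scored visually versus untreated controls at ~2 and 4 weeks after treatment, expressed as a herbicidal activity index.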

Panicum Spp = test: post-emergent herbicidal activity, greenhouse; conditions: Table II, 4 WAT
How it was run: as §2

Canada Thistle [13] = test: post-emergent herbicidal activity, greenhouse; conditions: Table I, 4 WAT
How it was run: as §2

Quackgrass [14] = test: post-emergent herbicidal activity, greenhouse; conditions: Table I, 4 WAT
How it was run: as §2

Sugar Beet = test: post-emergent herbicidal activity, greenhouse; conditions: Table II, 4 WAT
How it was run: as §2

Lambsquarters [15] = test: post-emergent herbicidal activity, greenhouse; conditions: 4 WAT
How it was run: as §2

Sorghum = test: post-emergent herbicidal activity, greenhouse; conditions: Table II, 4 WAT
How it was run: as §2

Hemp Sesbania = test: post-emergent herbicidal activity, greenhouse; conditions: Table II, 4 WAT
How it was run: as §2

Velvetleaf [16] = test: post-emergent herbicidal activity, greenhouse; conditions: 4 WAT
How it was run: as §2

Smartweed [17] = test: post-emergent herbicidal activity, greenhouse; conditions: 4 WAT
How it was run: as §2

Rice = test: post-emergent herbicidal activity, greenhouse; conditions: Table II, 4 WAT
How it was run: as §2

Wild Buckwheat = test: post-emergent herbicidal activity, greenhouse; conditions: Table II, 4 WAT
How it was run: as §2

Soybean = test: post-emergent herbicidal activity, greenhouse; conditions: Table II, 4 WAT
How it was run: as §2

Crabgrass = test: post-emergent herbicidal activity, greenhouse; conditions: Table II, 4 WAT
How it was run: as §2

Barnyardgrass [18] = test: post-emergent herbicidal activity, greenhouse; conditions: 4 WAT
How it was run: as §2

Johnsongrass [19] = test: post-emergent herbicidal activity, greenhouse; conditions: Table I, 4 WAT
How it was run: as §2

Wheat = test: post-emergent herbicidal activity, greenhouse; conditions: Table II, 4 WAT
How it was run: as §2

Yellow Nutsedge [20] = test: post-emergent herbicidal activity, greenhouse; conditions: Table I, 4 WAT
How it was run: as §2

Downy Brome [21] = test: post-emergent herbicidal activity, greenhouse; conditions: 4 WAT
How it was run: as §2

Morningglory [22] = test: post-emergent herbicidal activity, greenhouse; conditions: 4 WAT
How it was run: as §2

## CCCCCOC(=O)CNCP(=O)(O)OC(C)C#N (stereo not drawn) [Example 6, glycine, N-[[(1-cyanoethoxy)hydroxy-phosphinyl]methyl]pentyl ester, hemihydrate]
Cocklebur [1]
  pre-emergent herbicidal activity index: 0 (1-24% control)
Canada Thistle [2]
  pre-emergent herbicidal activity index: 0 (1-24% control)
Quackgrass [3]
  pre-emergent herbicidal activity index: 0 (1-24% control)
Lambsquarters [4]
  pre-emergent herbicidal activity index: 0 (1-24% control)
Velvetleaf [5]
  pre-emergent herbicidal activity index: 0 (1-24% control)
Smartweed [6]
  pre-emergent herbicidal activity index: 0 (1-24% control)
Barnyardgrass [7]
  pre-emergent herbicidal activity index: 0 (1-24% control)
Johnsongrass [8]
  pre-emergent herbicidal activity index: 0 (1-24% control)
Yellow Nutsedge [9]
  pre-emergent herbicidal activity index: 0 (1-24% control)
Downy Brome [10]
  pre-emergent herbicidal activity index: 0 (1-24% control)
Morningglory [11]
  pre-emergent herbicidal activity index: 0 (1-24% control)
Cocklebur [12]; Table I, 5.6 kg/h
  post-emergent herbicidal activity index: 3 (75-99% control)
Cocklebur [12]; Table I, 11.2 kg/h
  post-emergent herbicidal activity index: 3 (75-99% control)
Cocklebur [12]; Table II, 0.28 kg/h
  post-emergent herbicidal activity index: 2 (50-74% control)
Cocklebur [12]; Table II, 1.12 kg/h
  post-emergent herbicidal activity index: 2 (50-74% control)
Cocklebur [12]; Table II, 5.6 kg/h
  post-emergent herbicidal activity index: 3 (75-99% control)
Panicum Spp; 0.28 kg/h
  post-emergent herbicidal activity index: 4 (100% control)
Panicum Spp; 1.12 kg/h
  post-emergent herbicidal activity index: 4 (100% control)
Panicum Spp; 5.6 kg/h
  post-emergent herbicidal activity index: 4 (100% control)
Canada Thistle [13]; 5.6 kg/h
  post-emergent herbicidal activity index: 4 (100% control)
Canada Thistle [13]; 11.2 kg/h
  post-emergent herbicidal activity index: 4 (100% control)
Quackgrass [14]; 5.6 kg/h
  post-emergent herbicidal activity index: 2 (50-74% control)
Quackgrass [14]; 11.2 kg/h
  post-emergent herbicidal activity index: 3 (75-99% control)
Sugar Beet; 0.28 kg/h
  post-emergent herbicidal activity index: 2 (50-74% control)
Sugar Beet; 1.12 kg/h
  post-emergent herbicidal activity index: 4 (100% control)
Sugar Beet; 5.6 kg/h
  post-emergent herbicidal activity index: 4 (100% control)
Lambsquarters [15]; Table I, 5.6 kg/h
  post-emergent herbicidal activity index: 2 (50-74% control)
Lambsquarters [15]; Table I, 11.2 kg/h
  post-emergent herbicidal activity index: 4 (100% control)
Lambsquarters [15]; Table II, 0.28 kg/h
  post-emergent herbicidal activity index: 1 (25-49% control)
Lambsquarters [15]; Table II, 1.12 kg/h
  post-emergent herbicidal activity index: 3 (75-99% control)
Lambsquarters [15]; Table II, 5.6 kg/h
  post-emergent herbicidal activity index: 4 (100% control)
Sorghum; 0.28 kg/h
  post-emergent herbicidal activity index: 1 (25-49% control)
Sorghum; 1.12 kg/h
  post-emergent herbicidal activity index: 3 (75-99% control)
Sorghum; 5.6 kg/h
  post-emergent herbicidal activity index: 4 (100% control)
Hemp Sesbania; 0.28 kg/h
  post-emergent herbicidal activity index: 1 (25-49% control)
Hemp Sesbania; 1.12 kg/h
  post-emergent herbicidal activity index: 2 (50-74% control)
Hemp Sesbania; 5.6 kg/h
  post-emergent herbicidal activity index: 4 (100% control)
Velvetleaf [16]; Table I, 5.6 kg/h
  post-emergent herbicidal activity index: 3 (75-99% control)
Velvetleaf [16]; Table I, 11.2 kg/h
  post-emergent herbicidal activity index: 3 (75-99% control)
Velvetleaf [16]; Table II, 0.28 kg/h
  post-emergent herbicidal activity index: 1 (25-49% control)
Velvetleaf [16]; Table II, 1.12 kg/h
  post-emergent herbicidal activity index: 2 (50-74% control)
Velvetleaf [16]; Table II, 5.6 kg/h
  post-emergent herbicidal activity index: 3 (75-99% control)
Smartweed [17]; Table I, 5.6 kg/h
  post-emergent herbicidal activity index: 4 (100% control)
Smartweed [17]; Table I, 11.2 kg/h
  post-emergent herbicidal activity index: 4 (100% control)
Smartweed [17]; Table II, 0.28 kg/h
  post-emergent herbicidal activity index: 1 (25-49% control)
Smartweed [17]; Table II, 1.12 kg/h
  post-emergent herbicidal activity index: 3 (75-99% control)
Smartweed [17]; Table II, 5.6 kg/h
  post-emergent herbicidal activity index: 3 (75-99% control)
Rice; 0.28 kg/h
  post-emergent herbicidal activity index: 1 (25-49% control)
Rice; 1.12 kg/h
  post-emergent herbicidal activity index: 2 (50-74% control)
Rice; 5.6 kg/h
  post-emergent herbicidal activity index: 4 (100% control)
Wild Buckwheat; 0.28 kg/h
  post-emergent herbicidal activity index: 2 (50-74% control)
Wild Buckwheat; 1.12 kg/h
  post-emergent herbicidal activity index: 2 (50-74% control)
Wild Buckwheat; 5.6 kg/h
  post-emergent herbicidal activity index: 4 (100% control)
Soybean; 0.28 kg/h
  post-emergent herbicidal activity index: 1 (25-49% control)
Soybean; 1.12 kg/h
  post-emergent herbicidal activity index: 2 (50-74% control)
Soybean; 5.6 kg/h
  post-emergent herbicidal activity index: 4 (100% control)
Crabgrass; 0.28 kg/h
  post-emergent herbicidal activity index: 3 (75-99% control)
Crabgrass; 1.12 kg/h
  post-emergent herbicidal activity index: 3 (75-99% control)
Crabgrass; 5.6 kg/h
  post-emergent herbicidal activity index: 4 (100% control)
Barnyardgrass [18]; Table I, 5.6 kg/h
  post-emergent herbicidal activity index: 3 (75-99% control)
Barnyardgrass [18]; Table I, 11.2 kg/h
  post-emergent herbicidal activity index: 3 (75-99% control)
Barnyardgrass [18]; Table II, 0.28 kg/h
  post-emergent herbicidal activity index: 2 (50-74% control)
Barnyardgrass [18]; Table II, 1.12 kg/h
  post-emergent herbicidal activity index: 3 (75-99% control)
Barnyardgrass [18]; Table II, 5.6 kg/h
  post-emergent herbicidal activity index: 3 (75-99% control)
Johnsongrass [19]; 5.6 kg/h
  post-emergent herbicidal activity index: 1 (25-49% control)
Johnsongrass [19]; 11.2 kg/h
  post-emergent herbicidal activity index: 2 (50-74% control)
Wheat; 0.28 kg/h
  post-emergent herbicidal activity index: 2 (50-74% control)
Wheat; 1.12 kg/h
  post-emergent herbicidal activity index: 2 (50-74% control)
Wheat; 5.6 kg/h
  post-emergent herbicidal activity index: 4 (100% control)
Yellow Nutsedge [20]; 5.6 kg/h
  post-emergent herbicidal activity index: 2 (50-74% control)
Yellow Nutsedge [20]; 11.2 kg/h
  post-emergent herbicidal activity index: 4 (100% control)
Downy Brome [21]; Table I, 5.6 kg/h
  post-emergent herbicidal activity index: 1 (25-49% control)
Downy Brome [21]; Table I, 11.2 kg/h
  post-emergent herbicidal activity index: 3 (75-99% control)
Downy Brome [21]; Table II, 0.28 kg/h
  post-emergent herbicidal activity index: 3 (75-99% control)
Downy Brome [21]; Table II, 1.12 kg/h
  post-emergent herbicidal activity index: 3 (75-99% control)
Downy Brome [21]; Table II, 5.6 kg/h
  post-emergent herbicidal activity index: 4 (100% control)
Morningglory [22]; Table I, 5.6 kg/h
  post-emergent herbicidal activity index: 3 (75-99% control)
Morningglory [22]; Table I, 11.2 kg/h
  post-emergent herbicidal activity index: 2 (50-74% control)
Morningglory [22]; Table II, 0.28 kg/h
  post-emergent herbicidal activity index: 2 (50-74% control)
Morningglory [22]; Table II, 1.12 kg/h
  post-emergent herbicidal activity index: 2 (50-74% control)
Morningglory [22]; Table II, 5.6 kg/h
  post-emergent herbicidal activity index: 3 (75-99% control)
